In ChEMBL document CHEMBL3046949, “New molecular scaffolds for the design of Alzheimers acetylcholinesterase inhibitors identified using ligand- and receptor-based virtual screening” (Med Chem Res, 2013):

Columns and labels:
Acetylcholinesterase [1] = biological target: Acetylcholinesterase (Homo sapiens, UniProt P22303)
Description: Binding affinity to acetylcholinesterase (unknown origin)

Acetylcholinesterase [2] = biological target: T1, Acetylcholinesterase (Rattus norvegicus, UniProt P37136)
T1 sequence (P37136 whole entry): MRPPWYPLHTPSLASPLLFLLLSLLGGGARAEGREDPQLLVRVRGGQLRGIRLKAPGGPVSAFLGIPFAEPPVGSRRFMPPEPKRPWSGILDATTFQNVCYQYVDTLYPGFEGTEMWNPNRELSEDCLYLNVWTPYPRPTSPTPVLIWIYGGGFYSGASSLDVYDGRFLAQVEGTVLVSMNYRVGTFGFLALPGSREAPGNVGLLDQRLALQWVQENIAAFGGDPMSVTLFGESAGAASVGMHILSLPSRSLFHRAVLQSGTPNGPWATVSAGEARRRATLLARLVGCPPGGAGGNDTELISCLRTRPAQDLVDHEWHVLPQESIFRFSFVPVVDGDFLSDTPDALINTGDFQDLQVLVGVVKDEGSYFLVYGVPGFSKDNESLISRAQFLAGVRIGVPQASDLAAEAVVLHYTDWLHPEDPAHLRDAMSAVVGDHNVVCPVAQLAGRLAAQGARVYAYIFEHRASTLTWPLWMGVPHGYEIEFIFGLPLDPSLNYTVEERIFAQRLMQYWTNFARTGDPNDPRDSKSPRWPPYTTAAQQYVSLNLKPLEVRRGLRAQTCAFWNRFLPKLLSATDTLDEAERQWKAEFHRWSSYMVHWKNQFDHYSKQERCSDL
Description: Inhibition of acetylcholinesterase in Rattus norvegicus (rat) cortex by Ellman method

Sequence of Acetylcholinesterase (Homo sapiens, UniProt P22303) (P22303 whole entry): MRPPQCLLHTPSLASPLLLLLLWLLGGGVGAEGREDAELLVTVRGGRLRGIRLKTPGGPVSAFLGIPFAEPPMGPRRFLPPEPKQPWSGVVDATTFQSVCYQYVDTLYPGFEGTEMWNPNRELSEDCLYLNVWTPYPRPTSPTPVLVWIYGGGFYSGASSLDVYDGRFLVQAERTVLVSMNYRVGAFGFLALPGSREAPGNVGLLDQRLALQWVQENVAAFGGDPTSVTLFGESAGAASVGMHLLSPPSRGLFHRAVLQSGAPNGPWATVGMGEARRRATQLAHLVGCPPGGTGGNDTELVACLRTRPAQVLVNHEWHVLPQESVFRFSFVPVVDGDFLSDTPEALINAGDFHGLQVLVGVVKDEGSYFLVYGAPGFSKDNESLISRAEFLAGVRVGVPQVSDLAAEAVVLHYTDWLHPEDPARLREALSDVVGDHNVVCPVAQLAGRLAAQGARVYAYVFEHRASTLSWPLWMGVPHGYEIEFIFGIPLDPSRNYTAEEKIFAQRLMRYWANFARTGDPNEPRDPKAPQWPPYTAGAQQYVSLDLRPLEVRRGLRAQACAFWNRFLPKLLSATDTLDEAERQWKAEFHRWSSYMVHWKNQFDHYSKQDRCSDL

| Compound | Ki (Acetylcholinesterase [1]) | IC50 (Acetylcholinesterase [2]) |
| --- | --- | --- |
| CCN(C)Cc1ccc(/C=C2\Cc3cc(OC)c(OC)cc3C2=O)cc1 | 920 nM | 263 nM |
| COc1cc2c(cc1OC)C(=O)C(Oc1cccc(C(C)N3CCCCC3)c1)C2 (stereo not drawn) | 38.2 nM |  |
| COc1cc2c(cc1OC)C(=O)C(Oc1cccc(C(C)N3CCOCC3)c1)C2 (stereo not drawn) | 118 nM |  |
| CCN(CC)Cc1ccc(CC2Cc3cc(OC)c(OC)cc3C2=O)cc1 (stereo not drawn) | 1040 nM |  |
| O=c1c(Cl)c(N2CCN(c3ccc(C(F)(F)F)cn3)CC2)cnn1-c1c(Cl)cc(C(F)(F)F)cc1Cl | 2870 nM |  |
| COc1cc2c(cc1OC)C(=O)C(Oc1ccc(CN3CCN(C)CC3)cc1)C2 (stereo not drawn) | 69.5 nM |  |
| COc1cc2c(cc1OC)C(=O)C(Oc1ccc(CN3CCCCC3)cc1)C2 (stereo not drawn) | 403 nM |  |
| O=C(NC1CCN(Cc2ccccc2)CC1)c1ccc2c(c1)OCCCO2 | 95.3 nM |  |
| CCN(CC)C(C)c1ccc(OC2Cc3cc(OC)c(OC)cc3C2=O)cc1 (stereo not drawn) | 1330 nM |  |
| COc1cc2c(cc1OC)C(=O)C(Cc1ccc(CN3CCCCC3)cc1)C2 (stereo not drawn) | 73.8 nM | 123 nM |
| N/C(=N\OC(=O)c1cnn(-c2ccc([N+](=O)[O-])cc2)c1C(F)(F)F)c1ccc(Cl)cc1 | 2350 nM |  |
| COc1cc2c(cc1OC)C(=O)C(Oc1cccc(C(C)N(C)C)c1)C2 (stereo not drawn) | 400 nM |  |
| COc1cc2c(cc1OC)C(=O)C(Oc1cccc(CN3CCOCC3)c1)C2 (stereo not drawn) | 793 nM |  |
| CSc1cccc(/N=C2\NC(=O)C(CC(=O)Nc3ccc(F)c(F)c3)S2)c1 (stereo not drawn) | 130 nM |  |
| COc1cc2c(cc1OC)C(=O)C(Oc1cccc(C(C)N3CCN(C)CC3)c1)C2 (stereo not drawn) | 77.7 nM |  |
| COc1cc2c(cc1OC)C(=O)C(Oc1ccc(C(C)N3CCOCC3)cc1)C2 (stereo not drawn) | 217 nM |  |
| CCN(CC)Cc1cccc(CC2Cc3cc(OC)c(OC)cc3C2=O)c1 (stereo not drawn) | 21.7 nM |  |
| O=[N+]([O-])c1ccc(OCC(O)CN2CCCN(c3nc4ccc(Cl)cc4s3)CC2)cc1 (stereo not drawn) | 263 nM |  |
| CCN(C)Cc1cccc(CC2Cc3cc(OC)c(OC)cc3C2=O)c1 (stereo not drawn) | 507 nM |  |

| Compound | Ki (Acetylcholinesterase [1]) | IC50 (Acetylcholinesterase [2]) |
| --- | --- | --- |
| COc1cc2c(cc1OC)C(=O)C(Cc1cccc(CN3CCCC3)c1)C2 (stereo not drawn) | 22.3 nM |  |
| N/C(=N\OC(=O)c1cnn(-c2ccc([N+](=O)[O-])cc2)c1C(F)(F)F)c1ccc(C(F)(F)F)cc1 | 2070 nM |  |
| COc1ccc(C(=O)NC2CCN(Cc3c(F)cccc3Cl)CC2)cc1OC | 54.8 nM |  |
| CCN(CC)Cc1ccc(/C=C2\Cc3cc(OC)c(OC)cc3C2=O)cc1 | 453 nM |  |
| COc1cc2c(cc1OC)C(=O)/C(=C/c1cccc(CN3CCCC3)c1)C2 | 127 nM | 234 nM |
| Cc1c(S(=O)(=O)c2ccc(Cl)cc2)csc1C(=O)NC1CCN(Cc2ccccc2)CC1 | 21.3 nM |  |
| O=C(CN1CCN(Cc2ccccc2)CC1)Nc1ccc(C(F)(F)F)cc1Cl | 47.3 nM |  |
| O=C(Nc1ccc(OC(F)(F)F)cc1)N1CCCN(CCc2ccccc2)CC1 | 241 nM |  |
| COc1cc2c(cc1OC)C(=O)C(Oc1cccc(C(C)N3CCCC3)c1)C2 (stereo not drawn) | 138 nM |  |
| CCN(C)Cc1ccc(CC2Cc3cc(OC)c(OC)cc3C2=O)cc1 (stereo not drawn) | 918 nM |  |
| COc1cc2c(cc1OC)C(=O)C(Oc1ccc(CN3CCCC3)cc1)C2 (stereo not drawn) | 257 nM |  |
| O=C(CC1S/C(=N/c2ccc(C3CCCCC3)cc2)NC1=O)Nc1ccc(OC(F)(F)F)cc1 (stereo not drawn) | 897 nM |  |
| COc1cc2c(cc1OC)C(=O)C(Oc1ccc(C(C)N3CCCCC3)cc1)C2 (stereo not drawn) | 106 nM |  |
| CCN(C)Cc1cccc(/C=C2\Cc3cc(OC)c(OC)cc3C2=O)c1 | 235 nM |  |
| COc1cc2c(cc1OC)C(=O)C(Oc1ccc(C(C)N(C)C)cc1)C2 (stereo not drawn) | 543 nM |  |
| COc1cc2c(cc1OC)C(=O)C(Oc1ccc(CN(C)C)cc1)C2 (stereo not drawn) | 209 nM |  |
| CCN(CC)Cc1ccc(OC2Cc3cc(OC)c(OC)cc3C2=O)cc1 (stereo not drawn) | 1340 nM |  |
| CCN(CC)Cc1cccc(/C=C2\Cc3cc(OC)c(OC)cc3C2=O)c1 | 237 nM | 447 nM |
| COc1cc2c(cc1OC)C(=O)/C(=C/c1ccc(CN3CCCCC3)cc1)C2 | 95.2 nM | 102 nM |

| Compound | Ki (Acetylcholinesterase [1]) | IC50 (Acetylcholinesterase [2]) |
| --- | --- | --- |
| O=C(Nc1ccc(OC(F)(F)F)cc1)OC1CN(C(c2ccccc2)c2ccccc2)C1 | 22.8 nM |  |
| CC(C)(C)c1ccc(/C(N)=N/OC(=O)c2cnn(-c3ccc([N+](=O)[O-])cc3)c2C(F)(F)F)cc1 | 521 nM |  |
| COc1cc2c(cc1OC)C(=O)/C(=C/c1ccc(CN3CCCC3)cc1)C2 | 198 nM |  |
| CCN(CC)Cc1cccc(OC2Cc3cc(OC)c(OC)cc3C2=O)c1 (stereo not drawn) | 1590 nM |  |
| COc1cc2c(cc1OC)C(=O)C(Oc1ccc(C(C)N3CCN(C)CC3)cc1)C2 (stereo not drawn) | 228 nM |  |
| COc1cc2c(cc1OC)C(=O)C(Oc1cccc(CN(C)C)c1)C2 (stereo not drawn) | 1000 nM |  |
| COc1cc2c(cc1OC)C(=O)C(Cc1ccc(CN3CCCC3)cc1)C2 (stereo not drawn) | 773 nM | 155 nM |
| COc1cc2c(cc1OC)C(=O)C(Cc1cccc(CN(C)C)c1)C2 (stereo not drawn) | 525 nM |  |
| COc1cc2c(cc1OC)C(=O)C(Oc1ccc(CN3CCOCC3)cc1)C2 (stereo not drawn) | 514 nM |  |
| COc1cc2c(cc1OC)C(=O)C(Cc1cccc(CN3CCCCC3)c1)C2 (stereo not drawn) | 59.3 nM |  |
| COc1cc2c(cc1OC)C(=O)C(Oc1ccc(C(C)N3CCCC3)cc1)C2 (stereo not drawn) | 403 nM |  |
| COc1cc2c(cc1OC)C(=O)/C(=C/c1cccc(CN3CCCCC3)c1)C2 | 70.9 nM | 162 nM |
| COc1cc2c(cc1OC)C(=O)C(Oc1cccc(CN3CCCCC3)c1)C2 (stereo not drawn) | 266 nM |  |
| CC(CN1CCN(Cc2ccccc2)CC1)N(C(=O)c1cccc([N+](=O)[O-])c1)c1ccccn1 (stereo not drawn) | 61.4 nM |  |
| CCN(CC)C(C)c1cccc(OC2Cc3cc(OC)c(OC)cc3C2=O)c1 (stereo not drawn) | 865 nM |  |
| COc1cc2c(cc1OC)C(=O)/C(=C/c1cccc(CN(C)C)c1)C2 | 62.2 nM |  |
| COc1cc2c(cc1OC)C(=O)C(Oc1cccc(CN3CCN(C)CC3)c1)C2 (stereo not drawn) | 62.1 nM |  |
| COc1cc2c(cc1OC)C(=O)/C(=C/c1ccc(CN(C)C)cc1)C2 | 617 nM |  |
